Assay results published in PMC2822779, “A glycine receptor is involved in the organization of swimming movements in an invertebrate chordate” (BMC Neuroscience, 2010).

Target: T1, Ci-GlyR (Ciona intestinalis, UniProt D2KU21)
T1 construct: single subunit expressed alone; no tag stated; cDNA from hatched larvae
T1 sequence (D2KU21 25-491): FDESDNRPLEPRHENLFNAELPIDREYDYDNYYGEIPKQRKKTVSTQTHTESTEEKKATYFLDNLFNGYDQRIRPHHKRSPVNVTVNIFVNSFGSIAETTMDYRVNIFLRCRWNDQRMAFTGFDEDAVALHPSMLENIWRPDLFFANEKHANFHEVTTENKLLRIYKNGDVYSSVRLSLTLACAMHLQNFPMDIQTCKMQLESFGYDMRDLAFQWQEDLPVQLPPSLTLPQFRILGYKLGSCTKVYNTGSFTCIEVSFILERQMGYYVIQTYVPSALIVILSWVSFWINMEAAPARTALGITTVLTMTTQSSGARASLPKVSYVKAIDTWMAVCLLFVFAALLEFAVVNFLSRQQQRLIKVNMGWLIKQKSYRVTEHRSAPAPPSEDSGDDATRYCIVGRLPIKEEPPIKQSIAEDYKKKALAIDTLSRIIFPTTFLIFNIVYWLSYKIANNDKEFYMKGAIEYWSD
Test: two-electrode voltage clamp, Xenopus oocytes
Type: cell-based

NCC(=O)O [glycine]
EC50: ~750 µM
